Legend:
Format in all cases: binding
[1] = molecular target: T1, nonphosphorylated Tau aggregate (n-Tau) (Homo sapiens, UniProt P10636); assay: Fluorescence staining of nonphosphorylated tau aggregate prepared in vitro; conditions: 10 μM dye
T1 construct: made in house; host or cells: Escherichia coli
Procedure: (§1) Tau proteins (8 μM) expressed by Escherichia coli and heparin (1.6 μM) were incubated at 37° C. for 20 days to prepare a tau aggregate. A phosphorylated tau aggregate was similarly prepared using tau proteins phosphorylated with GSK-3β in vitro. The results of Pro-Q diamond staining after performing SDS-PAGE confirmed that the in-vitro phosphorylation was performed with a phosphorylation degree of 6 mol P/mol Tau.
(§2) 10 μM BODIPY-Zn(Dpa) or 10 μM thioflavine T (may be referred to as ThT) were added to the prepared tau aggregate or phosphorylated tau aggregate. After the addition, the mixture was washed twice with 0.5 mM Zn(NO3)2, and a suspension (0.5 μL) of the stained phosphorylated tau aggregate was air-dried on a cover glass and observed under a confocal laser scanning microscope (OLYMPUS FV-1000, Obj. lens 100×).

[2] = molecular target: T2, phosphorylated tau aggregate (p-Tau) (Homo sapiens, UniProt P10636); assay: Fluorescence staining of phosphorylated tau aggregate prepared in vitro
T2 construct: made in house; host or cells: Escherichia coli
T2 sequence (P10636 1-441 isoform P10636-8): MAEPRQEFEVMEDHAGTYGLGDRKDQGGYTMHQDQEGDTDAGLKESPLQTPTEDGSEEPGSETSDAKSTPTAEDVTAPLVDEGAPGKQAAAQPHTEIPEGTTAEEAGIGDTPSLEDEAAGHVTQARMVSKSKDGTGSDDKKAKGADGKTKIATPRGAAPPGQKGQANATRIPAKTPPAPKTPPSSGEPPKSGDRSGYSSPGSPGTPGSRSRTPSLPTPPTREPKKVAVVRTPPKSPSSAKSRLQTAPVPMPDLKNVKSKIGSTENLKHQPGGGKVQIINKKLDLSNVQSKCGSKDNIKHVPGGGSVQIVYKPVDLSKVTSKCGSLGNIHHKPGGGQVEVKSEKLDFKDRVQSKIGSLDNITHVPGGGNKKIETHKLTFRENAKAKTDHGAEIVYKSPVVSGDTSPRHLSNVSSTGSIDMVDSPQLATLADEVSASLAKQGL
Procedure: as §1, §2

[3] = molecular target: T3, Tau210-2202P (Homo sapiens, UniProt P10636); assay: Fluorescence spectra titration with Tau210-2202P added dropwise; conditions: compound 10 μM, pH 7.2, 50 mM HEPES buffer, 25° C.
T3 construct: made in house; host or cells: chemical solid-phase synthesis
Procedure: (§3) The peptide recognizing abilities of compounds 1 and 2 were evaluated by measuring fluorescence spectra. Measurement was performed under conditions of [compound 1 or 2=10 μM, an optical path length of 1 cm, pH 7.2, 50 mM HEPES buffer and 25° C. The excitation wavelength was λex=323 nm, Ex/Em=15 nm/10 nm, except λex=323 nm, Ex/Em=5 nm/10 nm for only Tau210-2202P, for compound 1, and λex=305 nm, Ex/Em=10 nm/12 nm for compound 2. […] When the peptide was excessively added, this change reached saturation. The association constants calculated from the fluorescence changes were in the order of approx. 10^5 M^−1. […] When the fluorescence spectra of compounds 1 and 2 themselves were compared, compound 2 emitted much weaker fluorescence on the short wavelength side and stronger fluorescence on the long wavelength side than compound 1 (FIG. 8B) ([compound 1 or 2=10 μM, λex=305 nm, Ex/Em=10 nm/12 nm, 50 mM HEPES buffer, 1 cm cell, 25° C.).

[4] = molecular target: T4, peptides with two phosphate groups with a distance of (i, i+4) or (i, i+6) (Homo sapiens, UniProt P10636); assay: Fluorescence titration of compound 1 with (i, i+4) or (i, i+6) diphosphorylated tau peptides
T4 construct: made in house; host or cells: chemical solid-phase synthesis
Procedure: as §3

[5] = molecular target: T5, Tau204-2163P (Homo sapiens, UniProt P10636); assay: Fluorescence titration of compound 1 with Tau204-2163P
T5 construct: made in house; host or cells: chemical solid-phase synthesis
Procedure: as §3

[6] = molecular target: T6, Tau204-2162P(i, i+6) (Homo sapiens, UniProt P10636); assay: Fluorescence titration of compound 1 with Tau204-2162P (i, i+6)
T6 construct: made in house; host or cells: chemical solid-phase synthesis
Procedure: as §3

[7] = molecular target: T7, Tau204-2162P (i, i+4) (Homo sapiens, UniProt P10636); assay: Fluorescence titration of compound 1 with Tau204-2162P (i, i+4)
T7 construct: made in house; host or cells: chemical solid-phase synthesis
Procedure: as §3

[8] = molecular target: T3, Tau210-2202P; assay: ITC measurement of affinity, Tau210-2202P; conditions: compound 1 100 μM, peptide 2 mM, 25° C., pH 7.2, 50 mM HEPES
Procedure: (§4) To determine whether these fluorescence changes are associated with binding, affinity was examined by ITC measurement using, in particular, three peptides of Tau210-2202P, Tau204-2163P and Tau204-2162P(i, i+6). ITC measurement was performed under the following conditions: Tau210-2202P, [compound 1]=100 μM and [peptide]=2 mM; Tau204-2163P, [compound 1]=50 μM and [peptide]=1 mM; Tau204-2162P(i, i+6), [compound 1]=100 μM and [peptide]=3.24 mM; the number of titrations, 24; measurement temperature, 25° C.; pH 7.2; and 50 mM HEPES buffer. FIG. 11 illustrates caloric changes when Tau210-2202P was added to compound 1. FIG. 12 illustrates various thermodynamic parameters obtained from the caloric changes in the three different peptides. The caloric changes associated with the dropping of the peptide was an entropy-driven endothermic process (ΔS>0, ΔH>0). This change can be attributed to dehydration of water molecules hydrated to the compound molecules and the phosphorylated peptides along with the binding. The association constants obtained in Tau210-2202P and Tau204-2163P (K=3.33×10^5 M^−1 and K=2.88×10^5 M^−1, respectively) were similar to the values calculated from the fluorescence changes. […] On the other hand, N=0.51 was obtained in Tau204-2162P(i, i+6), and it appears that two compound molecules individually interact with two phosphate groups on the peptide.

[9] = molecular target: T6, Tau204-2162P(i, i+6); assay: ITC measurement of affinity, Tau204-2162P(i, i+6); conditions: compound 1 100 μM, peptide 3.24 mM, 25° C., pH 7.2
Procedure: as §4

[10] = tested on: peptides with two phosphate groups positioned with a distance of (i, i+2); assay: Fluorescence titration of compound 1 with (i, i+2) diphosphorylated tau peptides
Procedure: as §3

[11] = molecular target: T5, Tau204-2163P; assay: ITC measurement of affinity, Tau204-2163P; conditions: compound 1 50 μM, peptide 1 mM, 25° C., pH 7.2, 50 mM HEPES
Procedure: as §4

[12] = Fluorescence titration of compound 1 with phenyl phosphate
Procedure: as §3

T1 sequence (P10636 1-441 isoform P10636-8): as above

With `Cc1ccc2c(c1)sc(-c1ccc(N(C)C)cc1)[n+]2C.[Cl-]` [thioflavine T, reference compound] the staining of aggregate [1] was “is observed”, the staining of aggregate ([2]; p-Tau in the presence of pyrophosphoric acid (PPi)) was “stained the aggregate” and the staining of aggregate ([2]; p-Tau, 10 μM dye) was “fluorescence of ThT and that of BODIPY-Zn(Dpa) overlapped”.

In the case of `CN(Cc1ccccn1)Cc1cc(/C=C/c2ccnc(CN(C)Cc3ccccn3)c2)ccn1.O=[N+]([O-])[O-].O=[N+]([O-])[O-].O=[N+]([O-])[O-].O=[N+]([O-])[O-].[Zn+2].[Zn+2]` [compound 1], the “association constants calculated from the fluorescence changes” value [3] is reported as “approx. 10^5 M^−1”, the “fluorescence change on dropwise addition of Tau210-2202P” value [3] is reported as “dual wavelength fluorescence changes” and the “fluorescence change on dropwise addition of peptide” value ([4]; (i, i+4) or (i, i+6) peptides) is reported as “did not show marked fluorescence changes”. The “binding to two phosphate groups” value ([4]; positions (i, i+4) or (i, i+6), summary) was “did not bind”, the fluorescence change [5] was “dual wavelength fluorescence changes occurred” and the fluorescence change [6] was “no marked fluorescence change occurred”. The fluorescence change [7] was “no marked fluorescence change occurred”, the “association constant K (ITC)” value [8] was 333000 M⁻¹ and the “stoichiometry N (ITC)” value [9] was 0.51. The “binding constants to the peptides calculated from the fluorescence changes” value ([10]; (i, i+2) peptides) was “approx. 10^5”, the “fluorescence change on dropwise addition of peptide” value ([10]; (i, i+2) peptides, compound 1 10 μM) was “dual wavelength fluorescence changes” and the Ka ([10]; (i, i+2) phosphate groups on tau sequence, summary) was ~10^5 M^−1. The “association constant K (ITC)” value [11] was 288000 M⁻¹ and the fluorescence change [12] was “no marked fluorescence change”.
